Laboratory results reported in ChEMBL document CHEMBL3880411, “Multikinase inhibitors for use in the treatment of cancer” (2009).
Activity calls are given as the source filed them. The calls are words filed in the database; no cut-off is given here.

Legend:
[1] = molecular target: T1, Dual specificity mitogen-activated protein kinase kinase 1 (Homo sapiens, UniProt Q02750); assay: Competitive inhibition of MEK1 (unknown origin) using ERK2 as substrate after 40 mins by ELISA
[2] = molecular target: Tyrosine-protein kinase ABL1 (Homo sapiens) (UniProt P00519); assay: Inhibition of human Abl assessed as remaining activity at 0.1 uM after 40 mins in presence of [gamma33P-ATP] by scintillation counting
[3] = molecular target: Tyrosine-protein kinase ABL1 (Homo sapiens) (UniProt P00519); assay: Inhibition of human Abl assessed as remaining activity at 1 uM after 40 mins in presence of [gamma33P-ATP] by scintillation counting
[4] = molecular target: Tyrosine-protein kinase Lck (Homo sapiens) (UniProt P06239); assay: Inhibition of human Lck assessed as remaining activity at 0.1 uM after 40 mins in presence of [gamma33P-ATP] by scintillation counting
[5] = molecular target: Tyrosine-protein kinase Lck (Homo sapiens) (UniProt P06239); assay: Inhibition of human Lck assessed as remaining activity at 1 uM after 40 mins in presence of [gamma33P-ATP] by scintillation counting
[6] = molecular target: T1, Dual specificity mitogen-activated protein kinase kinase 1; assay: Inhibition of human MEK1 assessed as remaining activity at 0.1 uM after 40 mins in presence of [gamma33P-ATP] by scintillation counting
[7] = molecular target: T1, Dual specificity mitogen-activated protein kinase kinase 1; assay: Inhibition of human MEK1 assessed as remaining activity at 1 uM after 40 mins in presence of [gamma33P-ATP] by scintillation counting
[8] = molecular target: Tyrosine-protein kinase Yes (Homo sapiens) (UniProt P07947); assay: Inhibition of human Yes assessed as remaining activity at 0.1 uM after 40 mins in presence of [gamma33P-ATP] by scintillation counting
[9] = molecular target: Tyrosine-protein kinase Yes (Homo sapiens) (UniProt P07947); assay: Inhibition of human Yes assessed as remaining activity at 1 uM after 40 mins in presence of [gamma33P-ATP] by scintillation counting
[10] = Cytotoxicity against human AU565 cells assessed as reduction in cell viability after 96 hrs by CellTiter-Glo luminescence assay or methylene blue assay; type: functional, cell-based; details: AU565, 96 h
[11] = Cytotoxicity against human MCF7 cells assessed as reduction in cell viability after 96 hrs by CellTiter-Glo luminescence assay or methylene blue assay; type: functional, cell-based; details: MCF7, 96 h
[12] = Cytotoxicity against human MDA-MB-231 cells expressing K-ras G13D mutant assessed as reduction in cell viability after 96 hrs by CellTiter-Glo luminescence assay or methylene blue assay; type: functional, cell-based; details: MDA-MB-231, 96 h
[13] = Cytotoxicity against human MDA-MB-435 cells expressing B-RAF V600E mutant assessed as reduction in cell viability after 96 hrs by CellTiter-Glo luminescence assay or methylene blue assay; type: functional, cell-based; details: MDA-MB-435, 96 h
[14] = Cytotoxicity against human DU4475 cells expressing B-RAF V600E mutant assessed as reduction in cell viability after 96 hrs by CellTiter-Glo luminescence assay or methylene blue assay; type: functional, cell-based; details: DU-4475, 96 h
[15] = Cytotoxicity against human DLD1 cells expressing K-ras G13D mutant assessed as reduction in cell viability after 96 hrs by CellTiter-Glo luminescence assay or methylene blue assay; type: functional, cell-based; details: DLD-1, 96 h
[16] = Cytotoxicity against human SK-MEL-2 cells expressing N-ras Q61R mutant assessed as reduction in cell viability after 96 hrs by CellTiter-Glo luminescence assay or methylene blue assay; type: functional, cell-based; details: SK-MEL-2, 96 h
[17] = Cytotoxicity against human SK-MEL-3 cells expressing B-RAF V600E mutant assessed as reduction in cell viability after 96 hrs by CellTiter-Glo luminescence assay or methylene blue assay; type: functional, cell-based; details: SK-MEL3, 96 h
[18] = Cytotoxicity against human SK-MEL-24 cells expressing B-RAF V600E mutant assessed as reduction in cell viability after 96 hrs by CellTiter-Glo luminescence assay or methylene blue assay; type: functional, cell-based; details: SK-MEL-24, 96 h
[19] = Cytotoxicity against human SK-MEL-31 cells expressing B-RAF V600E mutant assessed as reduction in cell viability after 96 hrs by CellTiter-Glo luminescence assay or methylene blue assay; type: functional, cell-based
[20] = Cytotoxicity against human LoVo cells expressing K-ras G13D mutant assessed as reduction in cell viability after 96 hrs by CellTiter-Glo luminescence assay or methylene blue assay; type: functional, cell-based
[21] = Cytotoxicity against human HCT116 cells expressing K-ras G13D mutant assessed as reduction in cell viability after 96 hrs by CellTiter-Glo luminescence assay or methylene blue assay; type: functional, cell-based; details: HCT-116, 96 h
[22] = Cytotoxicity against human SW620 cells expressing K-ras G12V mutant assessed as reduction in cell viability after 96 hrs by CellTiter-Glo luminescence assay or methylene blue assay; type: functional, cell-based; details: SW-620, 96 h
[23] = Cytotoxicity against human COLO205 cells expressing B-RAF V600E mutant assessed as reduction in cell viability after 96 hrs by CellTiter-Glo luminescence assay or methylene blue assay; type: functional, cell-based; details: COLO 205, 96 h
[24] = Cytotoxicity against human HT-29 cells expressing B-RAF V600E mutant assessed as reduction in cell viability after 96 hrs by CellTiter-Glo luminescence assay or methylene blue assay; type: functional, cell-based; details: HT-29, 96 h
[25] = Cytotoxicity against human MIAPaCa2 cells expressing K-ras G12C mutant assessed as reduction in cell viability after 96 hrs by CellTiter-Glo luminescence assay or methylene blue assay; type: functional, cell-based; details: MIA PaCa-2, 96 h
[26] = Cytotoxicity against human PANC1 cells expressing K-ras G12D mutant assessed as reduction in cell viability after 96 hrs by CellTiter-Glo luminescence assay or methylene blue assay; type: functional, cell-based; details: PANC-1, 96 h
[27] = Cytotoxicity against human BxPC3 cells assessed as reduction in cell viability after 96 hrs by CellTiter-Glo luminescence assay or methylene blue assay; type: functional, cell-based; details: BXPC-3, 96 h
[28] = Cytotoxicity against human MES-SA cells assessed as reduction in cell viability after 96 hrs by CellTiter-Glo luminescence assay or methylene blue assay; type: functional, cell-based
[29] = Cytotoxicity against human MES-SA/Dx5-Rx1 cells assessed as reduction in cell viability after 96 hrs by CellTiter-Glo luminescence assay or methylene blue assay; type: functional, cell-based
[30] = Cytotoxicity against human IMR90 cells assessed as reduction in cell viability after 96 hrs by CellTiter-Glo luminescence assay or methylene blue assay; type: functional, cell-based; details: IMR-90, 96 h
[31] = Antitumor activity against human LOX cells expressing B-RAF V600E mutant xenografted in athymic mouse assessed as tumor regression at 10 mg/kg, iv administered for two weekly rounds of five injections daily with two-day rest period between the rounds measured twice weekly from first day of treatment for 3 weeks; type: functional
[32] = Antitumor activity against human LOX cells expressing B-RAF V600E mutant xenografted in athymic mouse assessed as tumor regression at 20 to 40 mg/kg, iv administered for two weekly rounds of five injections daily with two-day rest period between the rounds measured twice weekly from first day of treatment; type: functional
LOX = assay: Antitumor activity against human LOX cells expressing B-RAF V600E mutant xenografted in athymic mouse assessed as tumor regression at 10 to 40 mg/kg, iv administered for two weekly rounds of five injections daily with two-day rest period between the rounds measured at end of study; type: functional, organism-based
[33] = Antiproliferative activity against human HL60 cells after 96 hrs by MTT assay; type: functional, cell-based; details: HL-60, 96 h
[34] = Antiproliferative activity against human THP1 cells after 96 hrs by MTT assay; type: functional, cell-based; details: THP-1, 96 h
[35] = Antiproliferative activity against human K562 cells after 96 hrs by MTT assay; type: functional, cell-based; details: K562, 96 h
[36] = Antiproliferative activity against human U266 cells after 96 hrs by MTT assay; type: functional, cell-based; details: U-266, 96 h
[37] = Antiproliferative activity against human RPMI8226 cells after 96 hrs by MTT assay; type: functional, cell-based; details: RPMI-8226, 96 h
[38] = Antiproliferative activity against human RL cells after 96 hrs by MTT assay; type: functional, cell-based
[39] = Antiproliferative activity against human NALM6 cells after 96 hrs by MTT assay; type: functional, cell-based; details: NALM-6, 96 h
[40] = molecular target: Nuclear factor NF-kappa-B complex (Homo sapiens) (UniProt Q00653+P19838+Q04206); assay: Inhibition of NFkappaB (unknown origin); type: protein-complex assay
Chain of Nuclear factor NF-kappa-B complex (Homo sapiens) (P19838 whole entry, looked up): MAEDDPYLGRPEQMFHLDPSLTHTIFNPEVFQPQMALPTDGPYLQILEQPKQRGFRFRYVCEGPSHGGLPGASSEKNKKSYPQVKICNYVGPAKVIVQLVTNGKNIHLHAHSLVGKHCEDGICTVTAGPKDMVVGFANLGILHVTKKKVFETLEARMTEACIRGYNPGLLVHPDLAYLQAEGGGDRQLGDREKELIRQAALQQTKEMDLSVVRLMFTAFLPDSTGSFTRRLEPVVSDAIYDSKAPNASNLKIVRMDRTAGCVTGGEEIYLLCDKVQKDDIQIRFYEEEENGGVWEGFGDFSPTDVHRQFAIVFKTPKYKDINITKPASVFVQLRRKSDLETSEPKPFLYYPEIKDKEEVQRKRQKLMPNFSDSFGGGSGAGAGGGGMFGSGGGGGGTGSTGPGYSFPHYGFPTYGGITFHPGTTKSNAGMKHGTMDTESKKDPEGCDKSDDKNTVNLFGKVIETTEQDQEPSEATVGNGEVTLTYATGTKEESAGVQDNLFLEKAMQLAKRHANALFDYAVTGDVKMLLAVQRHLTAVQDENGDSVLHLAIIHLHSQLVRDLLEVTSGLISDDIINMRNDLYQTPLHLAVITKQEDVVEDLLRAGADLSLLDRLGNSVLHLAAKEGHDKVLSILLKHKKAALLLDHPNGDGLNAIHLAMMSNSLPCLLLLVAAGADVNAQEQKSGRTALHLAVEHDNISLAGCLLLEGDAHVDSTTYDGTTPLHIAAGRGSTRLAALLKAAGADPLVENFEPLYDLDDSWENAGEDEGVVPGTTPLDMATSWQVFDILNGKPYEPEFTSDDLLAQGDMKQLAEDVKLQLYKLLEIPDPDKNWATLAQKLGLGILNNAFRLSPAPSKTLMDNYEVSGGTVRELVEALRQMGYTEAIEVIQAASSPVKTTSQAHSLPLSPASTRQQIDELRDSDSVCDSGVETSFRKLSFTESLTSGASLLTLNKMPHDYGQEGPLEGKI
Chain of Nuclear factor NF-kappa-B complex (Homo sapiens) (Q00653 whole entry, looked up): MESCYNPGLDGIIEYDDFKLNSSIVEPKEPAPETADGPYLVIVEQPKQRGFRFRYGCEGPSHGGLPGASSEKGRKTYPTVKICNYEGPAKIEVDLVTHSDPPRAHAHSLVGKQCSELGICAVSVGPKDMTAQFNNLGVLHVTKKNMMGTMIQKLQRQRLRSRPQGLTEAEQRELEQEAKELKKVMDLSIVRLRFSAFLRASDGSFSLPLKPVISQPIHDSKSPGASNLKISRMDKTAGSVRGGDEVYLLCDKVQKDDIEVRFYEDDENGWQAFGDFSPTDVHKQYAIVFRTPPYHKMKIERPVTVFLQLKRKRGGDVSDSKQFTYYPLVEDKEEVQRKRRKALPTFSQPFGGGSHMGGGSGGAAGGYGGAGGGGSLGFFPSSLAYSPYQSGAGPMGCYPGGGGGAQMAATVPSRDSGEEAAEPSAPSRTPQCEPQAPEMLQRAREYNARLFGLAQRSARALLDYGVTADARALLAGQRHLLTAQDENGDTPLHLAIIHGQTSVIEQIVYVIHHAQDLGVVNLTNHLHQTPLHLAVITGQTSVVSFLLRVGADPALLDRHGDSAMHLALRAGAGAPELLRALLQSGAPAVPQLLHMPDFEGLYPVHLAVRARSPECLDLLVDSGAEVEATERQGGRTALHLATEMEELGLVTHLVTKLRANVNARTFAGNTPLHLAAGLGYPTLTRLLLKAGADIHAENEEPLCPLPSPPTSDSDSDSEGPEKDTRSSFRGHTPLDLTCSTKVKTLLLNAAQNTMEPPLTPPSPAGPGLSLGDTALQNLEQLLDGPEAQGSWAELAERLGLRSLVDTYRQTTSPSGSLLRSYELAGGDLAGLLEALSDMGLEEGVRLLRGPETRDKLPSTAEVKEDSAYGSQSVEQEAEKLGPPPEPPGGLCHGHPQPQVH
Chain of Nuclear factor NF-kappa-B complex (Homo sapiens) (Q04206 whole entry, looked up): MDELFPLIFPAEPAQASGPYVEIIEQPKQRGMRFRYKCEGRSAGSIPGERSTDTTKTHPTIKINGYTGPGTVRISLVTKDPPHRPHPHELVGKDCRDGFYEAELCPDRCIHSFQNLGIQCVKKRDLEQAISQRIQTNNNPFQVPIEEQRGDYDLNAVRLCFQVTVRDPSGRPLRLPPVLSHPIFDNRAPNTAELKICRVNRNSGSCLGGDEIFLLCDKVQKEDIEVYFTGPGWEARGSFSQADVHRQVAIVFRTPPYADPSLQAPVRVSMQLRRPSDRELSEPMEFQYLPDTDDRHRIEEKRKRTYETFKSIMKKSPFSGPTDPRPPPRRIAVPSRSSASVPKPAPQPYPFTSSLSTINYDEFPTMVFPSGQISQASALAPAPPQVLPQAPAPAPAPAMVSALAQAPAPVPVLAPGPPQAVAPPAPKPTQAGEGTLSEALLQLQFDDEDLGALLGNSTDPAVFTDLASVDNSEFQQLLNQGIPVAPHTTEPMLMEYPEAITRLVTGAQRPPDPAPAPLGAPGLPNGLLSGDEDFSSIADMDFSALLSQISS

T1 sequence (Q02750 whole entry): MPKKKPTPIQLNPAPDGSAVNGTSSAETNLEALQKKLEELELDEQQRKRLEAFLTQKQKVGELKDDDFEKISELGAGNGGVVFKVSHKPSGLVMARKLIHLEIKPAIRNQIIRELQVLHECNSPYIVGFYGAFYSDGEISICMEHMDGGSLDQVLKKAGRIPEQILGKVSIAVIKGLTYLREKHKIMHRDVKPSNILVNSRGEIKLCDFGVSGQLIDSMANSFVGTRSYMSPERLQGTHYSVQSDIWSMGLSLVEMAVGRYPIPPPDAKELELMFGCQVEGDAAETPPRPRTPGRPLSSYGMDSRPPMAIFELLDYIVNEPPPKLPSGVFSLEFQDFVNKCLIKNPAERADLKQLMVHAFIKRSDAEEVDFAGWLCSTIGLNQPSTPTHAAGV
Chain of Tyrosine-protein kinase Lck (Homo sapiens) (P06239 2-509 limits assumed): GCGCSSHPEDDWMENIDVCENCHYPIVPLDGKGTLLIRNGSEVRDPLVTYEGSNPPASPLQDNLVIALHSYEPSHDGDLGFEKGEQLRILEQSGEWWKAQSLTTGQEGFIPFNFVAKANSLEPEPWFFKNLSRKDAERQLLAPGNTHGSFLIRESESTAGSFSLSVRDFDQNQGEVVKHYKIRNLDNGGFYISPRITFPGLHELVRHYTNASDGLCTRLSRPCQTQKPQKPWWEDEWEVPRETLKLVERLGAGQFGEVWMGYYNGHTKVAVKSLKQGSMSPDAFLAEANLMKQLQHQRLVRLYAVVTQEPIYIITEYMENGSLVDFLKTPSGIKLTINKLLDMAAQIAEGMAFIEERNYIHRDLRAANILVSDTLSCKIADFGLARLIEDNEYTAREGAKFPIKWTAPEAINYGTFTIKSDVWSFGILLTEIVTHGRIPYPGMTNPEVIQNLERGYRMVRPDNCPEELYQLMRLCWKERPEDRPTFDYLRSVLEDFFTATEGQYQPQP
Chain of Tyrosine-protein kinase Yes (Homo sapiens) (P07947 2-543 limits assumed): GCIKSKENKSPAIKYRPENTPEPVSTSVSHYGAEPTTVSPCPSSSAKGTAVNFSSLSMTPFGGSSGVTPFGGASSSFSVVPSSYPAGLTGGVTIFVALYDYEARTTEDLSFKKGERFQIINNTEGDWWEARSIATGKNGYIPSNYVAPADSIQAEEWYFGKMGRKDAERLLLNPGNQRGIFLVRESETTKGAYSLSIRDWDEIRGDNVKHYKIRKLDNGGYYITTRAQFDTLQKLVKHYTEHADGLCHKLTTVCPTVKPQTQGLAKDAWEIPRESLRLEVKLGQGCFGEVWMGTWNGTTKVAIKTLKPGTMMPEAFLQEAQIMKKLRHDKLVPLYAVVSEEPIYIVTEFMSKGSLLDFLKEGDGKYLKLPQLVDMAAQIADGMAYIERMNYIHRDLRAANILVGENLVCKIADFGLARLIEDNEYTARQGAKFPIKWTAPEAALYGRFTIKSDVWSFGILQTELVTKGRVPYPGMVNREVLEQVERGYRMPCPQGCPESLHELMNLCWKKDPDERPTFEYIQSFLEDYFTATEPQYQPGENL
Chain of Tyrosine-protein kinase ABL1 (Homo sapiens) (P00519 whole entry): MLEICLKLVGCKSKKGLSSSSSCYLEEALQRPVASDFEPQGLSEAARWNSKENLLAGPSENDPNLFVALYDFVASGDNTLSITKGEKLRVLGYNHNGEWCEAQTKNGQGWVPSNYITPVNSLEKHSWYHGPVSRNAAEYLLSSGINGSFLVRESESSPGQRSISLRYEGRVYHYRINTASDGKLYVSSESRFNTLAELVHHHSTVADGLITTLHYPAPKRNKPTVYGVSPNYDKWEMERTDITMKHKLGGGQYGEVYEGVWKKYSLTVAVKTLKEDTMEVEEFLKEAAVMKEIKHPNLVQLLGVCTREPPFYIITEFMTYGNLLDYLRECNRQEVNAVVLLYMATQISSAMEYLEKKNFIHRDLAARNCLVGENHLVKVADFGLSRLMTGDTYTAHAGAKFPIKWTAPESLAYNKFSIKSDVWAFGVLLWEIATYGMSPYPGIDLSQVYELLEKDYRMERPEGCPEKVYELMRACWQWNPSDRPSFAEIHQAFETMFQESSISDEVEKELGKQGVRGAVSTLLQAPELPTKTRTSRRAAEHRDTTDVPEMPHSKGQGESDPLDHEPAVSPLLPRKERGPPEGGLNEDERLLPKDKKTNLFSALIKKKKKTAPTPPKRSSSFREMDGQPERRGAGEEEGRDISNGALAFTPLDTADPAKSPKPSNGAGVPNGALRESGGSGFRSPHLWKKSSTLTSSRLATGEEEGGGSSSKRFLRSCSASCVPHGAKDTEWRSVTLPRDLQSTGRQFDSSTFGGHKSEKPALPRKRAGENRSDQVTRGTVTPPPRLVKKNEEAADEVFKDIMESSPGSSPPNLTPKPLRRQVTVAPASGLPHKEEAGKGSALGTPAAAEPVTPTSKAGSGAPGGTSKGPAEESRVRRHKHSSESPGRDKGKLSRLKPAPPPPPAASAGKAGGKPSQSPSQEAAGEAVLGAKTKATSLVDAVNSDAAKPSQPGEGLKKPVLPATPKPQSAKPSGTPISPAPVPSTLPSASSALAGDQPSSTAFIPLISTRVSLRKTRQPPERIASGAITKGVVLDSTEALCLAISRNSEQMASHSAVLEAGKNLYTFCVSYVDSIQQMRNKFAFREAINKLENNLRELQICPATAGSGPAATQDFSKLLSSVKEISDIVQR

CNc1cc(O)c2c(c1)/C=C/C[C@H](O)[C@H](O)C(=O)/C=C\[C@@H](C)[C@H](C)OC2=O
inhibition [1]: Active | Activity [2]: 69% | Activity [3]: 22% | Activity [4]: 38% | Activity [5]: 3% | Activity [6]: 30% | Activity [7]: 4% | Activity [8]: 46% | Activity [9]: 7% | IC50 [10]: > 10000 nM | IC50 [11]: > 10000 nM | IC50 [12]: 119 nM | IC50 [13]: 50 nM | IC50 [14]: 30 nM | IC50 [15]: 466 nM | IC50 [16]: 113 nM | IC50 [17]: 19 nM | IC50 [18]: 53 nM | IC50 [19]: 209 nM | IC50 [20]: 90 nM | IC50 [21]: 257 nM | IC50 [22]: 207 nM | IC50 [23]: 27 nM | IC50 [24]: 65 nM | IC50 [25]: 582 nM | IC50 [26]: > 10000 nM | IC50 [27]: 412 nM | IC50 [28]: 5780 nM | IC50 [29]: 908 nM | IC50 [30]: > 10000 nM | Activity [31]: 100% | Activity [32]: 100% | Activity (LOX): Active | IC50 [33]: 50 nM | IC50 [34]: 90 nM | IC50 [35]: 1430 nM | IC50 [36]: 1000 nM | IC50 [37]: > 4830 nM | IC50 [38]: 1620 nM | IC50 [39]: 650 nM | inhibition [40]: Active
